Experimental data: ChEMBL document CHEMBL4321791, “TASK Channels Pharmacology: New Challenges in Drug Design” (J Med Chem, 2019)
Structures can show the parent of a compound that is named as a salt. One block for each compound: values may come before it.

How the values were obtained:
[1] = target: T1, Potassium channel subfamily K member 9 (Homo sapiens, UniProt Q9NPC2); settings: 1 uM
Description: Inhibition of human TASK3 expressed in Xenopus oocytes at 1 uM by whole cell patch clamp assay relative to control

[2] = target: T2, Potassium channel subfamily K member 3 (Homo sapiens, UniProt O14649); test: Inhibition of human TASK1 expressed in Xenopus oocytes by whole cell voltage clamp assay; type: cell-based
Target sequence in this assay (O14649 whole entry): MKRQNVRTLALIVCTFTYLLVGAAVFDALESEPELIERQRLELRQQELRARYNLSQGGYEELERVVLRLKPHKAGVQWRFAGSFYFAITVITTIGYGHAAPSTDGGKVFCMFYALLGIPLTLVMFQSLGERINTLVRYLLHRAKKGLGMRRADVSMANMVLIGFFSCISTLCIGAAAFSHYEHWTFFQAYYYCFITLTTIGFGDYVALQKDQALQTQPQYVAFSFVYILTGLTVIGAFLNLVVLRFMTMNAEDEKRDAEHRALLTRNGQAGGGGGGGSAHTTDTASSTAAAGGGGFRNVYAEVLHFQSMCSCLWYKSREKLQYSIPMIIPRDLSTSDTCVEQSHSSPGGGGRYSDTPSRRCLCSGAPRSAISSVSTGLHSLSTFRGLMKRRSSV

[3] = target: T1, Potassium channel subfamily K member 9; test: Inhibition of human TASK3 expressed in Xenopus oocytes by whole cell voltage clamp assay; type: cell-based
[4] = target: T2, Potassium channel subfamily K member 3; test: Activation of human TASK1 expressed in African green monkey COS cells at 2 mM by whole cell patch clamp assay relative to control; type: cell-based
Target sequence in this assay (O14649 whole entry, looked up): as the sequence (O14649 whole entry) above

[5] = target: T1, Potassium channel subfamily K member 9; test: Inhibition of human TASK3 expressed in HEK293 cells by Ti+ flux assay; type: cell-based
[6] = target: T1, Potassium channel subfamily K member 9; test: Inhibition of human TASK3 expressed in CHOK1 cells by Ti+ flux assay; type: cell-based
[7] = target: T1, Potassium channel subfamily K member 9; test: Inhibition of human TASK3 expressed in CHO cells by Inside-out macro-patches based electrophysiology assay; type: cell-based
[8] = target: T3, Potassium channel subfamily K member 5 (Homo sapiens, UniProt O95279); test: Inhibition of human TASK2 expressed in CHO cells by Inside-out macro-patches based electrophysiology assay; type: cell-based
T3 sequence (O95279 whole entry): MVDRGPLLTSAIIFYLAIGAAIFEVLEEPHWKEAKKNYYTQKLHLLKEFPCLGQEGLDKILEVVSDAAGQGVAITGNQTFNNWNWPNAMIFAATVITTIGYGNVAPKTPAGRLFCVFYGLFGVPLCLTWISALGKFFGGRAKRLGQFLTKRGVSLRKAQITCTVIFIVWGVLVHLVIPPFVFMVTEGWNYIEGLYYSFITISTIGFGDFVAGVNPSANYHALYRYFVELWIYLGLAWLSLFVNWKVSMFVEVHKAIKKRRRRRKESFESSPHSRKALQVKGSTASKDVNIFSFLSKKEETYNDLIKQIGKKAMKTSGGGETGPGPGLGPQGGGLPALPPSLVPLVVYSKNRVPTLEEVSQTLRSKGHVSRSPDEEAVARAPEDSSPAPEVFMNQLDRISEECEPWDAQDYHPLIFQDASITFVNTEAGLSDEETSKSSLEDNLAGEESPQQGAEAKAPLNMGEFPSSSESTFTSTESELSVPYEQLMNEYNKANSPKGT

[9] = target: T4, Potassium channel subfamily K member 9 (Rattus norvegicus, UniProt Q9ES08); test: Inhibition of rat TASK3 expressed in (FRT) epithelial cells by chamber based electrophysiology assay; type: cell-based
[10] = target: T5, Potassium channel subfamily K member 17 (Homo sapiens, UniProt Q96T54); test: Inhibition of human TASK4 expressed in CHO cells by Inside-out macro-patches based electrophysiology assay; type: cell-based
T5 sequence (Q96T54 whole entry): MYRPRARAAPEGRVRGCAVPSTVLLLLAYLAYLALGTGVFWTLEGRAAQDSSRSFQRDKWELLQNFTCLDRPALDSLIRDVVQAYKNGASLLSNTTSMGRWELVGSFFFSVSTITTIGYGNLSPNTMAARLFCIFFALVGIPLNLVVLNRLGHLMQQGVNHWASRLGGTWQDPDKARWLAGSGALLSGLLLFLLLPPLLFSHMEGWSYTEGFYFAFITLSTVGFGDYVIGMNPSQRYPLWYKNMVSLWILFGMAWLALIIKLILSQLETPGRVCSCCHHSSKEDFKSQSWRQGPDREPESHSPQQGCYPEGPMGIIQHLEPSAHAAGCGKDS

[11] = species on record: Homo sapiens; test: Selectivity index, ratio of IC50 for Kv1.5 channel (unknown origin) to IC50 for inhibition of human TASK1 expressed in Xenopus oocytes by whole cell voltage clamp assay; type: cell-based
[12] = target: T2, Potassium channel subfamily K member 3; test: Inhibition of human TASK1 by whole cell voltage clamp assay
Target sequence in this assay (O14649 whole entry): as the sequence (O14649 whole entry) above

[13] = target: T1, Potassium channel subfamily K member 9; test: Activation of human TASK3 expressed in Xenopus oocytes at 1 mM by whole cell patch clamp assay relative to control; type: cell-based
[14] = target: T2, Potassium channel subfamily K member 3; test: Activation of human TASK1 expressed in African green monkey COS cells at 1 mM by whole cell patch clamp assay relative to control; type: cell-based
Target sequence in this assay (O14649 whole entry, looked up): as the sequence (O14649 whole entry) above

[15] = target: T2, Potassium channel subfamily K member 3; test: Activation of human TASK1 expressed in African green monkey COS cells at 0.1 to 1 mM by whole cell patch clamp assay relative to control; type: cell-based
Target sequence in this assay (O14649 whole entry, looked up): as the sequence (O14649 whole entry) above

[16] = target: T1, Potassium channel subfamily K member 9; test: Activation of human TASK3 expressed in human tsA201 cells at 1 uM by whole cell patch clamp assay relative to control; type: cell-based
[17] = target: Potassium channel subfamily K member 9 (Rattus norvegicus) (UniProt Q9ES08); test: Inhibition of rat TASK3 expressed in African green monkey COS7 cells at 100 uM by outside-out patches based electrophysiology assay relative to control; type: cell-based
[18] = target: T2, Potassium channel subfamily K member 3; test: Inhibition of human TASK1 expressed in African green monkey COS7 cells by whole cell patch clamp assay; type: cell-based
Target sequence in this assay (O14649 whole entry): as the sequence (O14649 whole entry) above

[19] = target: T6, Potassium channel subfamily K member 3 (Rattus norvegicus, UniProt O54912); test: Inhibition of rat TASK1 expressed in Xenopus oocytes by whole cell voltage clamp assay; type: cell-based
[20] = target: T4, Potassium channel subfamily K member 9; test: Inhibition of rat TASK3 expressed in Xenopus oocytes by whole cell voltage clamp assay; type: cell-based
[21] = target: T1, Potassium channel subfamily K member 9; test: Inhibition of human TASK3 expressed in HEK293 by whole cell voltage clamp assay; type: cell-based
[22] = target: T2, Potassium channel subfamily K member 3; test: Inhibition of human TASK1 expressed in African green monkey COS cells at 0.6 mM by whole cell patch clamp assay relative to control; type: cell-based
Target sequence in this assay (O14649 whole entry, looked up): as the sequence (O14649 whole entry) above

[23] = target: T2, Potassium channel subfamily K member 3; test: Inhibition of human TASK1 expressed in African green monkey COS cells by whole cell patch clamp assay; type: cell-based
Target sequence in this assay (O14649 whole entry): as the sequence (O14649 whole entry) above

[24] = target: T4, Potassium channel subfamily K member 9; test: Inhibition of rat TASK3 expressed in African green monkey COS7 cells by outside-out patches based electrophysiology assay; type: cell-based
[25] = target: T6, Potassium channel subfamily K member 3; test: Inhibition of rat TASK1 expressed in African green monkey COS7 cells by outside-out patches based electrophysiology assay; type: cell-based
[26] = target: Potassium channel subfamily K member 9 (Rattus norvegicus) (UniProt Q9ES08); test: Inhibition of rat TASK3 expressed in African green monkey COS7 cells at 1 mM by outside-out patches based electrophysiology assay relative to control; type: cell-based

Potassium channel subfamily K member 9 (Rattus norvegicus), sequence (Q9ES08 whole entry): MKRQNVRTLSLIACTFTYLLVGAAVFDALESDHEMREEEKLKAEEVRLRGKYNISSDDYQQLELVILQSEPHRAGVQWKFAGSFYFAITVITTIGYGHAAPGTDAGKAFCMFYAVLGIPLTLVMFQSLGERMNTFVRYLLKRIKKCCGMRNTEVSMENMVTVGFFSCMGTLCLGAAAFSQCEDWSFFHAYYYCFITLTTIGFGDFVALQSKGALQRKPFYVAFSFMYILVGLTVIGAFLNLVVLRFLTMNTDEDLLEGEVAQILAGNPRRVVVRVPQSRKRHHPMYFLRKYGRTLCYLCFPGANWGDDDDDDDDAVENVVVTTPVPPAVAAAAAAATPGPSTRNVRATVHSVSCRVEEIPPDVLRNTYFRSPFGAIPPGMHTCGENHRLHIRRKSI
T4 sequence (Q9ES08 whole entry): as above
T1 sequence (Q9NPC2 whole entry): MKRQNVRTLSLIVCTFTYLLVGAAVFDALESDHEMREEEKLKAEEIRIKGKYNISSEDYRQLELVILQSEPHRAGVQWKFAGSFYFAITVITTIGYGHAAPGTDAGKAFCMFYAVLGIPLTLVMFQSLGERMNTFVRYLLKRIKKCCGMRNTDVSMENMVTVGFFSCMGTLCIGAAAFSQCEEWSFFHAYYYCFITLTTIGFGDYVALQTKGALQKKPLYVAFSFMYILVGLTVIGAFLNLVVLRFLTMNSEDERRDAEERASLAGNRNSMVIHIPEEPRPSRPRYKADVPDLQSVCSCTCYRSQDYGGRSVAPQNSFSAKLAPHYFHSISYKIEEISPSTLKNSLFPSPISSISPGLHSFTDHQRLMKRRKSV
T6 sequence (O54912 whole entry): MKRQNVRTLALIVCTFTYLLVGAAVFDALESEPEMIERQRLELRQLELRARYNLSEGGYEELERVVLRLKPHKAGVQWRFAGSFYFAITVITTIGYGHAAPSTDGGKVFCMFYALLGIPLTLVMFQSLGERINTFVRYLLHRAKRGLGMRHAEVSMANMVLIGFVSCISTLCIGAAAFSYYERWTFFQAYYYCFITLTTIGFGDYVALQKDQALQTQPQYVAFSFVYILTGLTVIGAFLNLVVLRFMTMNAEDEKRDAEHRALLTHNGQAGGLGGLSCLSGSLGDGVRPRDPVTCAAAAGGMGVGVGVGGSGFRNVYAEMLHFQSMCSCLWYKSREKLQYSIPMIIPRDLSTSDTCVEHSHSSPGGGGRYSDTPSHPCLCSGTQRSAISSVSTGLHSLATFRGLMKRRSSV

Compound: CC[N+](CC)(CC)CC
- inhibition [1]: 6.1%

Compound: FC(F)OC(Cl)C(F)(F)F (stereo not given)
- Activity [4]: 25%

Compound: CC[C@@H]1/C=C/C=C/C[C@H](C)[C@@H](O)[C@](C)(O)C(=O)[C@H](C)[C@@H](O)[C@H](C)C(=O)[C@H](C)[C@@H](O)[C@H](C)/C=C/C(=O)O[C@H]2[C@@H](C)[C@@H](CC1)O[C@@]1(CC[C@@H](C)[C@@H](C[C@H](C)O)O1)[C@@H]2C
- IC50 [5]: 47.7 µM

Compound: Ic1ccccc1CN[C@@H]1C2CCN(CC2)[C@@H]1C(c1ccccc1)c1ccccc1
- IC50 [5]: 45.5 µM

Compound: COc1ccc(CC(=O)NCc2ccccc2-c2ccccc2C(=O)NCCc2cccnc2)cc1
- IC50 [2]: 0.6 µM

Compound: FC(F)(F)C(Cl)Br (stereo not given)
- Activity [13]: 65.6%
- Activity [14]: 60%
- Activity [15]: > 60%

Compound: CCCCC/C=C\C/C=C\C/C=C\C/C=C\CCCC(=O)NCCO [ANANDAMIDE]
- IC50 [18]: 3 µM

Compound: CC[C@H](C)C(=O)O[C@H]1CCC=C2C=C[C@H](C)[C@H](CC[C@@H]3C[C@@H](O)CC(=O)O3)[C@H]21 [MEVASTATIN]
- IC50 [5]: 159 µM

Compound: O=C(NCc1ccccc1-c1ccccc1C(=O)NCCc1ccccn1)OCc1ccccc1
- IC50 [2]: 0.2 µM

Compound: CC(C1CC2CCC1C2)n1c(S)nnc1-c1ccco1 (stereo not given)
- IC50 [21]: 0.413 µM
- IC50 [12]: 3.2 µM

Compound: CCOCC
- inhibition [22]: 40%

Compound: CCCCC/C=C\C/C=C\C/C=C\C/C=C\CCCC(=O)N[C@H](C)CO [METHANANDAMIDE]
- IC50 [23]: 0.1 µM

Compound: CCOC(=O)c1cc(C)n2c1-c1cc(OC)c(OC)cc1CC2
- IC50 [2]: 83.5 µM

Compound: CCCCNc1ccc(C(=O)OCCN(C)C)cc1 [TETRACAINE]
- IC50 [2]: 668 µM

Compound: CCCN(CC)C(CC)C(=O)Nc1c(C)cccc1C (stereo not given) [ETIDOCAINE]
- IC50 [2]: 39 µM

Compound: [Cl-].[Cs+]
- Activity [13]: 7.7%

Compound: CCN(CC)CC(=O)Nc1c(C)cccc1C [LIDOCAINE]
- inhibition [26]: 62%
- IC50 [2]: 222 µM

The next lines start with results.

- IC50 [2]: 0.35 µM
Compound: COc1ccc(-n2nc(Sc3ccc(C)cc3)c(C)c(C#N)c2=O)cc1

- IC50 [3]: 189 µM
Compound: COc1cc2c(cc1OC)-c1c(C#N)c(-c3ccccc3)c(C)n1CC2

- IC50 [2]: 709 µM
Compound: Cc1cccc(C)c1NC(=O)C1CCCCN1C (stereo not given) [MEPIVACAINE]

- IC50 ([5]; hek293): 73.8 µM
Compound: CN1CCN(C2Cc3ccccc3Sc3ccc(Cl)cc32)CC1 (stereo not given) [CLOROTEPINE]

- IC50 ([5]; hek293): 63.4 µM
Compound: CCOC(=O)N1CCC(=C2c3ccc(Cl)cc3CCc3cccnc32)CC1 [LORATADINE]

- fold change (FC) [6]: 6
Compound: O=C(NCCNc1ccc([N+](=O)[O-])cc1C(F)(F)F)c1ccccc1

- IC50 [5]: 73.8 µM
Compound: CN1CCN(C2Cc3ccccc3Sc3ccc(Cl)cc32)CC1 (racemic)

- IC50 [7]: 0.07 µM
- IC50 [3]: 0.318 µM
- IC50 [8]: 12 µM
- IC50 [9]: 0.036 µM
- IC50 [10]: 8.1 µM
- IC50 [2]: 0.035 µM
Compound: COc1ccc(CC(=O)NCc2ccccc2-c2ccccc2C(=O)NCc2ccc(F)cc2F)cc1
- Ratio IC50 [11]: 68

- IC50 [3]: 0.95 µM
- IC50 [12]: 0.22 µM
- IC50 [2]: 0.222 µM
Compound: CCCCS(=O)(=O)Nc1ccccc1C(=O)NC(CC)c1ccc(OC)nc1 (stereo not given)

- Activity [16]: 30%
Compound: CN(C/C=C/C#CC(C)(C)C)Cc1cccc2ccccc12

- inhibition [17]: 37%
Compound: C=C[C@H]1CN2CC[C@H]1C[C@@H]2[C@@H](O)c1ccnc2ccc(OC)cc12

- IC50 ([5]; hek293): 24.6 µM
Compound: COCC(=O)O[C@]1(CCN(C)CCCc2nc3ccccc3[nH]2)CCc2cc(F)ccc2[C@@H]1C(C)C [MIBEFRADIL DIHYDROCHLORIDE]

- IC50 [2]: 96.7 µM
Compound: CCOC(=O)c1c(-c2cccs2)c(C)n2c1-c1cc(OC)c(OC)cc1CC2

- IC50 [19]: 0.41 µM
- IC50 [20]: 37 µM
- IC50 [9]: 16 µM
Compound: CCN1CC(CCN2CCOCC2)C(c2ccccc2)(c2ccccc2)C1=O (stereo not given) [DOXAPRAM]

- IC50 [2]: 51 µM
Compound: CCCN1CCCC[C@@H]1C(=O)Nc1c(C)cccc1C

- IC50 [5]: 50.1 µM
Compound: CN(C)c1cc2c(Nc3ccc4c(cnn4Cc4ccccc4)c3)ncnc2cn1 [GW282974X]

- IC50 [3]: 268 µM
Compound: CCOC(=O)c1c(-c2cccc(N)c2)c(C)n2c1-c1cc(OC)c(OC)cc1CC2

- IC50 [2]: 53 µM
Compound: CCCN1CCCC[C@H]1C(=O)Nc1c(C)cccc1C [ROPIVACAINE]

- IC50 [2]: 1.05 µM
Compound: CCc1ccc(S(=O)(=O)NC2c3cc(NC(=O)c4cccc(OC)c4)ccc3CC2O)cc1 (stereo not given)

- IC50 [9]: 0.01 µM
Compound: CCCC(=O)C1CCN(c2ncnc3c2CN(C(=O)c2ccc(-c4ccccc4)cc2)CC3)CC1

- inhibition [17]: 56%
- IC50 [2]: 41 µM
- IC50 [24]: 100 µM
- IC50 [25]: 41 to 68 µM
Compound: CCCCN1CCCCC1C(=O)Nc1c(C)cccc1C (stereo not given) [BUPIVACAINE]
